In patent US10822376B2, “Biologically active peptides” (Baxalta Incorporated, priority 2008, dated 2020):
Where a SMILES comes first, the peptide text is derived from it. Bridges are numbered along the chain shown (N, C = ends). Roman numbers before positions name the chains, in order. [ ]: non-standard residue; d: D form.

Tests used:
[1] = system: human FVIII inhibited plasma; test: Defined Intrinsic Thrombin Generation Assay (DITGA, triggered by FXIa and phospholipids); format: biochemical; details: for Activity in the Defined Intrinsic Thrombin Generation Assay: summary
Text: (§1) The intrinsic pathway of thrombin generation may be assayed in a thrombin generation assay by including FXIa and phospholipids. In such an assay, which is similar to an activated partial thromboplastin time (aPTT) test, thrombin generation is solely directed through the intrinsic pathway, and is FVIII dependent. A suitable assay is the Defined Intrinsic Thrombin Generation Assay described below. Alternatively, by employing low concentrations of TF and phospholipids instead of FXIa and phospholipids, thrombin is generated by both the extrinsic (tissue factor) and the intrinsic pathways. This form of the thrombin generation assay is the more physiologic one, as both thrombin generation pathways are involved; it is partially FVIII dependent. A suitable assay is the Defined Dual-Pathway Thrombin Generation Assay.
The Defined Intrinsic Thrombin Generation Assay is performed as follows. FVIII activity of human plasma is inhibited by incubating (2 hours, 37° C.) 40 μl of human normal plasma with 10 μl heat inactivated anti-human FVIII plasma raised in goat (600 BU/ml, 6 hours incubated at 56° C.). […] Instead of FVIII-inhibited plasma, FVIII inhibitor patient plasma or several depleted plasmas can be used. The micro-plate is immediately put into a GENios Plus (Tecan) or Safire 2 (Tecan) fluorescence reader and the fluorescence signal (ex 340 nm/em 440 nm) is followed kinetically by reading the plate every 21 seconds.
For calculation of activity equivalent units experiments are performed with dilutions of Factor Eight Inhibitor Bypassing Agent (FEIBA, Baxter AG), Immunate (human FVIII, purified plasma derived) reference standard (Baxter AG) or Recombinate standard (human FVIII, purified recombinant, Baxter AG). A linear fit of the logarithm of FEIBA (FVIII) concentration plotted against thrombin generation time at peak thrombin results in a standard curve. With this curve FEIBA (FVIII) equivalent activity is calculated for a defined peptide concentration. […] Thus, where a concentration of 100 μM is given, the actual concentration in the final assay volume in 40 μM.
Compounds were screened using the “Defined intrinsic thrombin generation assay” in which thrombin generation was quantified in vitro in FVIII-inhibited human plasma in the presence of Factor XIa and phospholipid vesicles. Further compounds were screened in the above assay, and in the “Defined dual-pathway thrombin generation assay” using tissue factor and phospholipids instead of Factor XIa and phospholipids, as described in the specific description.
Various concentrations of each peptide were tested in the defined intrinsic thrombin generation assay using human FVIII inhibited plasma.

[2] = system: FVIII-inhibited human normal plasma; test: Defined Fibrin Deposition Assay (clotting time); format: biochemical
Protocol: Another suitable assay to determine procoagulant activity, and particularly FVIII equivalent activity or FVIII inhibitor bypassing activity, is the Defined Fibrin Deposition Assay as described below. […] This assay is particularly useful for determining coagulation FVIII activity because it is conducted in the presence of FVIII-depleted or inhibited plasma.
The Defined Fibrin Deposition Assay is performed as follows. FVIII activity of human citrated plasma (Baxter AG) is first inhibited by incubating (2 hours, 37° C.) 100 μl of human normal plasma with 25 μl heat inactivated anti-human FVIII plasma (300 BU/ml, 6 hours incubated at 56° C.) raised in goat. For each sample to be tested, 125 μl of this FVIII-inhibited human normal plasma is transferred to a pre-warmed cuvette and a 75 μl dilution of a test compound or FEIBA reference standard (Baxter AG) is added. The dilutions of test compound or FEIBA reference standard contain 50 mM imidazole, 100 mM NaCl and 10 mg/ml human serum albumin (Sigma) pH 7.4. As a trigger and for providing procoagulant surfaces 100 μl of a mix of human factor XIa (3.13 nM, Enzyme Research Laboratories) and phospholipid (PL) vesicles (Phosphatidylcholine/Phosphatidylserine 60%/40%, 30 μM; Avanti Polar Lipids) in 50 mM Imidazole, 100 mM NaCl, 10 mg/ml human serum albumin (Sigma) pH 7.4 is included. After incubating for three minutes at 37° C. the coagulation reaction is started by adding 100 μl of 25 mM CaCl2. Clot formation is monitored by a coagulometer (KC10A, Amelung, Germany). In brief, each cuvette rotates slowly above the magnetic detection device and contains a small magnetic metallic ball. Whilst the plasma components remain in solution, the ball sits at the bottom of the cuvette. Over time, a clot begins to form, such that the ball starts to rotate with the developing clot in the rotating cuvette. The “clotting time” is recorded and is defined as the time from addition of the CaCl2) to the time that the developing clot begins to rotate the metallic ball. A standard curve for FEIBA reference standard dilutions is calculated by linear regression of logarithmic FEIBA concentrations (x-axis) against the clotting time (y-axis). Based on the clotting time of each compound concentration FEIBA equivalent activities are calculated according to this standard curve.
Thus, where a concentration of 100 μM is given, the actual concentration in the final assay volume in 25 μM.
Various peptides were tested for the ability to stimulate fibrin deposition in the Defined Fibrin Deposition Assay as described in the specific description.

FVIII inhibited plasma = test: Defined Dual-Pathway Thrombin Generation Assay (DDPTGA, reagent C high), FVIII inhibited plasma; format: biochemical, human; details: for Peak IIa FEIBA EU / Peak IIa FVIIa EU / Peak Time FEIBA EU / Peak Time FVIIa EU: FVIII inhibited plasma; for Activity in the Defined Dual-Pathway Thrombin Generation Assay: summary, FVIII inhibited or deficient plasma
Text: as §1
(§2) Preferably, Reagent C high is used.
(§3) Tissue factor dependency of peak thrombin generation and thrombin peak time was characterised in a composition containing a fixed concentration of phospholipid (namely 3.2 μM). Phospholipid dependency was characterised in a composition containing a fixed concentration of tissue factor (namely 7.2 μM). Peak time (time to peak thrombin generation) was dependent on the concentration of phospholipid or tissue factor. The final version of this assay is as described in the specific description, in which 10 μl reagent C high containing (32 μM phospholipid and 71.6 μM tissue factor) is used in a total volume of 100 μl.
(§4) Further studies were conducted using 3.2 μM phospholipid and 7.2 μM tissue factor in FVIII deficient or inhibited plasma, to characterise the effect on peak thrombin generation and thrombin peak time of various coagulation factor preparations. These studies provided a basis from which to compare the efficacy of the compounds in the assay. Briefly, rFVIII (Recombinate® FVIII from Baxter) was tested at 0, 5, 10, 20, 40 and 80 mU/ml in FVIII deficient plasma. FEIBA was tested at 0, 8, 16, 31, 63 and 125 mU/ml in FVIII inhibited plasma. FVIIa was tested at 0, 0.1, 0.4, 1.6, 6.3 and 25 nM in FVIII inhibited plasma. […] Peak thrombin increased and both the lag time and the thrombin peak time decrease.

FVIII deficient plasma = test: Defined Dual-Pathway Thrombin Generation Assay (DDPTGA, reagent C high), FVIII deficient plasma; format: biochemical, human; details: for Effect on both peak time and peak IIa of thrombin generation: DDPTGA, comment on Table 10; for Peak IIa FVIII EU / Peak Time FVIII EU: FVIII deficient plasma
Text: as §1, §2, §3, §4

Compound | Thrombin peak time given as FEIBA equivalent activity ([1]; peptide 12.5 μM) | Thrombin peak time given as FEIBA equivalent activity ([1]; peptide 25 μM) | Thrombin peak time given as FEIBA equivalent activity ([1]; peptide 50 μM) | Thrombin peak time given as FEIBA equivalent activity ([1]; peptide 100 μM) | Activity in the Defined Intrinsic Thrombin Generation Assay [1] | Peak IIa FEIBA EU (FVIII inhibited plasma; peptide 100 μM) | Peak IIa FVIIa EU (FVIII inhibited plasma; peptide 100 μM) | Peak Time FEIBA EU (FVIII inhibited plasma; peptide 100 μM) | Peak Time FVIIa EU (FVIII inhibited plasma; peptide 100 μM) | Activity in the Defined Dual-Pathway Thrombin Generation Assay (FVIII inhibited plasma) | Effect on both peak time and peak IIa of thrombin generation (FVIII deficient plasma) | Peak IIa FVIII EU (FVIII deficient plasma; peptide 100 μM) | Peak Time FVIII EU (FVIII deficient plasma; peptide 100 μM) | Peak IIa FEIBA EU (FVIII inhibited plasma; peptide 50 μM) | Peak IIa FVIIa EU (FVIII inhibited plasma; peptide 50 μM) | Peak Time FEIBA EU (FVIII inhibited plasma; peptide 50 μM) | Peak Time FVIIa EU (FVIII inhibited plasma; peptide 50 μM) | Peak IIa FVIII EU (FVIII deficient plasma; peptide 50 μM) | Peak Time FVIII EU (FVIII deficient plasma; peptide 50 μM) | also measured
CC[C@@H](C)[C@H]1NC(=O)[C@H](NC(C)=O)CSSC[C@H](C(=O)N[C@H](Cc2ccc(O)cc2)C(=O)N[C@H](CCC(=O)O)C(N)=O)NC(=O)[C@@H](CC(=O)O)NC(=O)[C@@H](Cc2ccc(O)cc2)NC(=O)[C@@H](Cc2c[nH]c3ccccc23)NC(=O)[C@@H](Cc2ccccc2)NC(=O)[C@@H](CCSC)NC1=O [Peptide B01, Ac-(cimfwydc)-ye-NH2] (Ac-[dC][dI][dM][dF][dW][dY][dD][dC][dY][dE]-NH2; disulfide 1-8) | 35 mU/ml | 62 mU/ml | 89 mU/ml | 103 mU/ml | possess activity |  |  |  |  |  |  |  |  |  |  |  |  |  |  | FEIBA EU (from clotting time) ([2]; compound 25 μM): 31 mU/ml; FEIBA EU (from clotting time) ([2]; compound 50 μM): 47 mU/ml; FEIBA EU (from clotting time) ([2]; compound 100 μM): 94 mU/ml; Activity in the Defined Fibrin Deposition Assay ([2]; summary): possess activity
CC[C@@H](C)[C@@H](NC(=O)[C@@H](CSSC[C@@H](NC(C)=O)C(=O)N[C@@H](C(=O)N[C@H](CCSC)C(=O)N[C@H](Cc1ccccc1)C(=O)N[C@H](Cc1c[nH]c2ccccc12)C(=O)N[C@H](Cc1ccc(O)cc1)C(=O)N[C@H](CC(=O)O)C(=O)N[C@H](CCC(=O)O)C(=O)N[C@H](Cc1ccc(O)cc1)C(=O)N[C@H](CCC(=O)O)C(N)=O)[C@H](C)CC)NC(C)=O)C(=O)N[C@H](CCSC)C(=O)N[C@H](Cc1ccccc1)C(=O)N[C@H](Cc1c[nH]c2ccccc12)C(=O)N[C@H](Cc1ccc(O)cc1)C(=O)N[C@H](CC(=O)O)C(=O)N[C@H](CCC(=O)O)C(=O)N[C@H](Cc1ccc(O)cc1)C(=O)N[C@H](CCC(=O)O)C(N)=O [Peptide B04, Disulphide-Dimer(Ac-cimfwydeye-NH2)2] (I: Ac-[dC][dI][dM][dF][dW][dY][dD][dE][dY][dE]-NH2 / II: Ac-[dC][dI][dM][dF][dW][dY][dD][dE][dY][dE]-NH2; disulfide I:1-II:1) |  |  |  |  |  | 13.3 mU/ml | 0.7 nM | BLS (BLS = below lowest standard.) | BLS (BLS = below lowest standard.) | possess activity | positively affected | 5.0 mU/ml | 1.6 mU/ml |  |  |  |  |  |  | Peak IIa FEIBA EU (FVIII inhibited plasma; peptide 16 μM): BLS (BLS = below lowest standard.); Peak IIa FVIIa EU (FVIII inhibited plasma; peptide 16 μM): 0.1 nM; Peak Time FEIBA EU (FVIII inhibited plasma; peptide 16 μM): BLS (BLS = below lowest standard.); Peak Time FVIIa EU (FVIII inhibited plasma; peptide 16 μM): BLS (BLS = below lowest standard.); Peak IIa FEIBA EU (FVIII inhibited plasma; peptide 40 μM): 12.8 mU/ml; Peak IIa FVIIa EU (FVIII inhibited plasma; peptide 40 μM): 0.6 nM; Peak Time FEIBA EU (FVIII inhibited plasma; peptide 40 μM): BLS (BLS = below lowest standard.); Peak Time FVIIa EU (FVIII inhibited plasma; peptide 40 μM): BLS (BLS = below lowest standard.); Peak IIa FVIII EU (FVIII deficient plasma; peptide 16 μM): 4.4 mU/ml; Peak Time FVIII EU (FVIII deficient plasma; peptide 16 μM): 4.1 mU/ml; Peak IIa FVIII EU (FVIII deficient plasma; peptide 40 μM): 4.8 mU/ml; Peak Time FVIII EU (FVIII deficient plasma; peptide 40 μM): 7.3 mU/ml
Ac-WDLYFEISW-ttds-E [Peptide A15] |  |  |  |  |  | 13.6 mU/ml | 0.7 nM | BLS (BLS = below lowest standard.) | BLS (BLS = below lowest standard.) | possess activity | positively affected | 5.0 mU/ml | 12.7 mU/ml | BLS (BLS = below lowest standard.) | BLS (BLS = below lowest standard.) | BLS (BLS = below lowest standard.) | BLS (BLS = below lowest standard.) | 4.3 mU/ml | 14.4 mU/ml | 
Ac-WDLYFEIVW-ttds-K [Peptide A20] | 501 mU/ml | 597 mU/ml | 873 mU/ml | 1101 mU/ml | possess activity |  |  |  |  |  |  |  |  |  |  |  |  |  |  | Thrombin peak time given as FEIBA equivalent activity ([1]; peptide 6.25 μM): 391 mU/ml
Ac-WSLYFEIVWE [Peptide A14] |  |  |  |  |  | BLS (BLS = below lowest standard.) | BLS (BLS = below lowest standard.) | BLS (BLS = below lowest standard.) | BLS (BLS = below lowest standard.) |  |  | BLS (BLS = below lowest standard.) | BLS (BLS = below lowest standard.) | BLS (BLS = below lowest standard.) | BLS (BLS = below lowest standard.) | BLS (BLS = below lowest standard.) | BLS (BLS = below lowest standard.) | BLS (BLS = below lowest standard.) | BLS (BLS = below lowest standard.) | 
PEG5000-ERMEFDVWDLYFEIVW-NH2 [Peptide A18] |  |  |  |  |  | BLS (BLS = below lowest standard.) | BLS (BLS = below lowest standard.) | BLS (BLS = below lowest standard.) | BLS (BLS = below lowest standard.) | possess activity |  | BLS (BLS = below lowest standard.) | 17.1 mU/ml | BLS (BLS = below lowest standard.) | BLS (BLS = below lowest standard.) | BLS (BLS = below lowest standard.) | BLS (BLS = below lowest standard.) | BLS (BLS = below lowest standard.) | BLS (BLS = below lowest standard.) | 
